Test results: patent US10689340B2, “Substituted indoline derivatives as dengue viral replication inhibitors” (priority 2016, dated 2020)
Structures can show the parent of a compound that is named as a salt.

Tests used:
[1] = tested on: DENV-2 16681 strain; assay: DENV-2 antiviral assay (eGFP fluorescence); assay type: cell-based, Dengue virus; conditions: DENV-2 16681 eGFP, Vero cells, MOI 0.5, 3 days
Description: The antiviral activity of all the compounds of the invention was tested against the DENV-2 16681 strain which was labeled with enhanced green fluorescent protein (eGPF). The culture medium consists of minimal essential medium supplemented with 2% of heat-inactivated fetal calf serum, 0.04% gentamycin (50 mg/mL) and 2 mM of L-glutamine. Vero cells, obtained from ECACC, were suspended in culture medium and 25 μL was added to 384-well plates (2500 cells/well), which already contain the antiviral compounds. Typically, these plates contain a 5-fold serial dilution of 9 dilution steps of the test compound at 200 times the final concentration in 100% DMSO (200 nL). […] Finally, each plate contains wells which are assigned as virus controls (containing cells and virus in the absence of compound), cell controls (containing cells in the absence of virus and compound) and medium controls (containing medium in the absence of cells, virus and compounds). To the wells assigned as medium control, 25 μL of culture medium was added instead of Vero cells. Once the cells were added to the plates, the plates were incubated for 30 minutes at room temperature to allow the cells to distribute evenly within the wells. Next, the plates were incubated in a fully humidified incubator (37° C., 5% CO2) until the next day. Then, DENV-2 strain 16681, labeled with eGFP, was added at a multiplicity of infection (MOI) of 0.5. Therefore, 15 μL of virus suspension was added to all the wells containing test compound and to the wells assigned as virus control. In parallel, 15 μL of culture medium was added to the medium and cell controls. Next, the plates were incubated for 3 days in a fully humidified incubator (37° C., 5% CO2). At the day of the read out, the eGFP fluorescence was measured using an automated fluorescence microscope at 488 nm (blue laser). Using an in-house LIMS system, inhibition dose response curves for each compound were calculated and the half maximal effective concentration (EC50) was determined. Therefore, the percent inhibition (I) for every test concentration is calculated using the following formula: I=100*(ST-SCC)/(SVC-SCC); ST, SCC and SVC are the amount of eGFP signal in the test compound, cell control and virus control wells, respectively. The EC50, represents the concentration of a compound at which the virus replication is inhibited with 50%, as measured by a 50% reduction of the eGFP fluorescent intensity compared to the virus control. The EC50 is calculated using linear interpolation (Table 1).

[2] = tested on: DENV-1 strain TC974#666; assay: Tetravalent RT-qPCR assay, serotype 1; assay type: cell-based; conditions: Dengue virus, DENV1, Vero, 72 h
Description: (§1) The antiviral activity of the compounds of the invention was tested against DENV-1 strain TC974#666 (NCPV), DENV-2 strain 16681, DENV-3 strain H87 (NCPV) and DENV-4 strain H241 (NCPV) in a RT-qPCR assay. Therefore, Vero cells were infected with either DENV-1, or -2, or -3, or -4 in the presence or absence of test compounds. At day 3 post-infection, the cells were lysed and cell lysates were used to prepare cDNA of both a viral target (the 3′UTR of DENV; Table 2) and a cellular reference gene (β-actin, Table 2). Subsequently, a duplex real time PCR was performed on a Lightcycler480 instrument. The generated Cp value is inversely proportional to the amount of RNA expression of these targets. Inhibition of DENV replication by a test compound results in a shift of Cp's for the 3′UTR gene. On the other hand, if a test compound is toxic to the cells, a similar effect on β-actin expression will be observed. The comparative ΔΔCp method is used to calculate EC50, which is based on the relative gene expression of the target gene (3′UTR) normalized with the cellular housekeeping gene (β-actin). In addition, CC50 values are determined based on the Cp values acquired for the housekeeping gene β-actin.
(§2) The culture medium consisted of minimal essential medium supplemented with 2% of heat-inactivated fetal calf serum, 0.04% gentamycin (50 mg/mL) and 2 mM of L-glutamine. Vero cells, obtained from ECACC, were suspended in culture medium and 75 μL/well was added in 96-well plates (10000 cells/well), which already contain the antiviral compounds. […] In addition, each plate contains wells which are assigned as virus controls (containing cells and virus in the absence of compound) and cell controls (containing cells in the absence of virus and compound). Once the cells were added in the plates, the plates were incubated in a fully humidified incubator (37° C., 5% CO2) until the next day. Dengue viruses serotype-1, -2, -3 and -4 were diluted in order to obtain a Cp of ˜22-24 in the assay. Therefore, 25 μL of virus suspension was added to all the wells containing test compound and to the wells assigned as virus control. In parallel, 25 μL of culture medium was added to the cell controls. Next, the plates were incubated for 3 days in a fully humidified incubator (37° C., 5% CO2). After 3 days, the supernatant was removed from the wells and the cells were washed twice with ice-cold PBS (˜100 μL). The cell pellets within the 96-well plates were stored at −80° C. for at least 1 day. Next, RNA was extracted using the Cells-to-CT^Tm lysis kit, according to the manufacturer's guideline (Life Technologies). The cell lysates can be stored at −80° C. or immediately used in the reverse transcription step.
(§3) In preparation of the reverse transcription step, mix A (table 3A) was prepared and 7.57 μL/well was dispensed in a 96-well plate. After addition of 5 μL of the cell lysates, a five minute denaturation step at 75° C. was performed (table 3B). Afterwards, 7.43 μL of mix B was added (table 3C) and the reverse transcription step was initiated (table 3D) to generate cDNA.
(§4) Finally, a RT-qPCR mix was prepared, mix C (table 4A), and 22.02 μL/well was dispensed in 96-well LightCycler qPCR plates to which 3 μL of cDNA was added and the qPCR was performed according to the conditions in table 4B on a LightCycler 480.
(§5) Using the LightCycler software and an in-house LIMS system, dose response curves for each compound were calculated and the half maximal effective concentration (EC50) and the half maximal cytotoxic concentration (CC50) were determined (Tables 5-8).

[3] = tested on: DENV-2 strain 16681; assay: Tetravalent RT-qPCR assay, serotype 2; assay type: cell-based; conditions: Dengue virus, DENV2, 72 h; RT-qPCR serotype 2 16681, Protocol A, Vero cells, day 3
Description: as §1, §2, §3, §4, §5

[4] = tested on: DENV-3 strain H87; assay: Tetravalent RT-qPCR assay, serotype 3; assay type: cell-based; conditions: Dengue virus, DENV3, 72 h; RT-qPCR serotype 3 H87, Protocol A, Vero cells, day 3
Description: as §1, §2, §3, §4, §5

[5] = tested on: DENV-4 strain H241; assay: Tetravalent RT-qPCR assay, serotype 4; assay type: cell-based; conditions: Dengue virus, DENV4, 72 h; RT-qPCR serotype 4 H241, Protocol A, Vero cells, day 3
Description: as §1, §2, §3, §4, §5

[6] = tested on: Vero cells; conditions: African green monkey
[7] = in vitro; conditions: African green monkey

Structure (SMILES)	melting point [°C]	EC50 [1] [nM]	EC50 [2] [nM]	EC50 [3] [nM]	EC50 [4] [nM]	EC50 [5] [nM]	CC50 [6] [nM]	CC50 [7] [nM]
COc1cc(NC(C(=O)N2CCc3ccc(OC(F)(F)F)cc32)c2ccc(F)cc2)cc(OCCCC(=O)O)c1 (racemic) (as salt: HCl) [Compound 2, 4-(3-((1-(4-fluorophenyl)-2-oxo-2-(6-(trifluoromethoxy)indolin-1-yl)ethyl)amino)-5-methoxyphenoxy)butanoic acid]	136							
COc1cc(NC(C(=O)N2CCc3cc(OC)c(C(F)(F)F)cc32)c2ccc(Cl)cc2)cc(OCCCC(=O)O)c1 (racemic) (as salt: HCl) [Compound 5, 4-(3-((1-(4-chlorophenyl)-2-(5-methoxy-6-(trifluoromethyl)indolin-1-yl)-2-oxoethyl)amino)-5-methoxyphenoxy)butanoic Acid]	130							
COc1cc(NC(C(=O)N2CCc3ccc(C(F)(F)F)cc32)c2ccc(Cl)cc2OC)cc(OCCCC(=O)O)c1 (racemic) (as salt: HCl) [Compound 6, 4-(3-((1-(4-chloro-2-methoxyphenyl)-2-oxo-2-(6-(trifluoro-methyl)indolin-1-yl)ethyl)amino)-5-methoxyphenoxy)butanoic acid]	178							
COc1cc(NC(C(=O)N2CCc3cc(OC)c(C(F)(F)F)cc32)c2ccc(Cl)cc2OC)cc(OCCCC(=O)O)c1 (racemic) (as salt: HCl) [Compound 7, 4-(3-((1-(4-chloro-2-methoxyphenyl)-2-(5-methoxy-6-(trifluoromethyl)indolin-1-yl)-2-oxoethyl)amino)-5-methoxyphenoxy)butanoic acid]	160							
COc1cc(NC(C(=O)N2CCc3ccc(OC(F)(F)F)cc32)c2ccc(Cl)cc2OC)cc(OCCCC(=O)O)c1 (racemic) (as salt: HCl) [Compound 8, 4-(3-((1-(4-chloro-2-methoxyphenyl)-2-oxo-2-(6-(trifluoro-methoxy)indolin-1-yl)ethyl)amino)-5-methoxyphenoxy)butanoic acid]	139							
COc1cc(NC(C(=O)N2CCc3ccc(C(F)(F)F)cc32)c2ccc(F)cc2)cc(OCCCC(=O)O)c1 (single isomer, unassigned) [Compound 1B]		0.84	0.28	0.48	3.4	51	20000	
COc1cc(NC(C(=O)N2CCc3ccc(OC(F)(F)F)cc32)c2ccc(F)cc2)cc(OCCCC(=O)O)c1 (single isomer, unassigned) [Compound 2B]		0.24	0.3	0.28	4.6	30	20000	
COc1cc(NC(C(=O)N2CCc3ccc(C(F)(F)F)cc32)c2ccc(Cl)cc2)cc(OCCCC(=O)O)c1 (single isomer, unassigned) [Compound 3B]		0.14	0.18	0.12	1.1	14	13000	
COc1cc(NC(C(=O)N2CCc3ccc(OC(F)(F)F)cc32)c2ccc(Cl)cc2)cc(OCCCC(=O)O)c1 (single isomer, unassigned) [Compound 4B]		0.12	0.048	0.06	0.66	11	13000	
COc1cc(NC(C(=O)N2CCc3cc(OC)c(C(F)(F)F)cc32)c2ccc(Cl)cc2)cc(OCCCC(=O)O)c1 (single isomer, unassigned) [Compound 5B]		0.18	0.74	0.17	4.6	24	13000	
COc1cc(NC(C(=O)N2CCc3cc(OC)c(C(F)(F)F)cc32)c2ccc(Cl)cc2OC)cc(OCCCC(=O)O)c1 (single isomer, unassigned) [Compound 7B]		0.17	0.61	0.28	5.8	25	13000	
COc1cc(NC(C(=O)N2CCc3ccc(OC(F)(F)F)cc32)c2ccc(Cl)cc2OC)cc(OCCCC(=O)O)c1 (single isomer, unassigned) [Compound 8B]		0.066	0.15	0.062	1	12	14000	
COc1cc(NC(C(=O)N2CCc3ccc(C(F)(F)F)cc32)c2ccc(Cl)cc2F)cc(OCCCC(=O)O)c1 (single isomer, unassigned) [Compound 9B]		0.4	0.22	0.3	4.1	31	13000	
COc1cc(NC(C(=O)N2CCc3ccc(OC(F)(F)F)cc32)c2ccc(Cl)cc2F)cc(OCCCC(=O)O)c1 (single isomer, unassigned) [Compound 10A]		0.19	0.16	0.2	2.1	10		13000
COc1cc(NC(C(=O)N2CCc3cc(OC)c(C(F)(F)F)cc32)c2ccc(Cl)cc2F)cc(OCCCC(=O)O)c1 (single isomer, unassigned) [Compound 11B]		0.15	0.67	0.17	5.4	22	12000	
COc1cc(NC(C(=O)N2CCc3cc(OC)c(OC(F)(F)F)cc32)c2ccc(Cl)cc2)cc(OCCCC(=O)O)c1 (single isomer, unassigned) [Compound 12B]		0.35	0.68	0.22	4.1	28	12000	
